These results are taken from patent US20160281125A1, “ANTIMICROBIAL COMPOUND SUSCEPTIBILITY TEST” (priority 2013, published 2016).

In one test the test system is K. pneumo BAA-1705 (KPC). The experiment in a line: Selective lysis test, OD600, meropenem and cefotaxime (Example 2). It counts as cell-based, K. pneumoniae. As for the experimental part:
(§1) In this experiment the following strains were tested: strain K. pneumoniae 13882 (previously considered meropenem sensitive and cefotaxime sensitive); E. coli BAA-197 (ESBL) (which expresses an extended-spectrum (beta)-lactamase enzyme and was previously considered meropenem sensitive and cefotaxime resistant); K. pneumoniae BAA-1705 (KPC) (which expresses a carbapenemase enzyme and was previously considered meropenem resistant and cefotaxime resistant); and K. pneumoniae BAA-2146 (NDM1) (which expresses the metallo-beta-lactamase-1 enzyme and was previously considered meropenem resistant and cefotaxime resistant).
(§2) An isolated colony from an overnight Tryptocase Soy Agar (TSA) plate of each bacteria was suspended in 1 ml Tryptocase Soy Broth (TSB) in a 5 ml BD polystyrene round bottom tube. TSB cultures were incubated at 37° C. for 1.5 hours shaking. Three 250 μl aliquots of each stationary-phase culture were then transferred to three 2 ml Eppendorf microcentrifuge tubes. One tube contained 500 μl of Normal Saline (BD); the second tube contained 500 μl Normal Saline with meropenem at 10 μg/ml; and the third tube contained 500 μl Normal Saline with cefotaxime (abbreviated […]) at 10 μg/ml. Tubes were inverted then incubated at 37° C. stagnant for thirty minutes. Then […] of lysis buffer (0.5% SDS in PSB) was added to each tube and each tube was vortexed for 5 seconds. Post incubation, all tubes were spun at 10000 G for 5 minutes. Supernatant was decanted and the pellet resuspended in Normal Saline. Tubes were vortexed. OD600 was measured using Eppendorf uvettes in a spectrophotometer. The delta between the control and the meropenem normal saline, or the control and the cefotaxime normal saline was used to determine susceptibility.

The next test deals with K. pneumo 13882. The description is as above. It counts as cell-based, K. pneumoniae. The method, then: as §1, §2
Test [1] concerns K. pneumo BAA-2146 (NDM1). The description is as above. It counts as cell-based, K. pneumoniae. As for the experimental part:
as §1, §2

The subject of a further test is E. coli BAA-197 (ESBL). Described as above. It counts as cell-based. The method, then: as §1, §2
Test [2] relates to class D beta-lactamase Enterobacteriaceae. Kind of test: Lysis test on simulated blood cultures vs CLSI disk diffusion (Example 9). It counts as cell-based. As to conditions: the one Class D strain incorrect with ertapenem; cut-off ≦30% resistant. As for the experimental part:
In this example, isolates tested include strains with and without carbapenemases. From fresh blood agar plates, three colonies per strain were used to inoculate blood culture media containing human blood and grown overnight at 37° C. with shaking, producing a simulated blood culture. Cultures were then diluted 1:10 into broth medium and grown for an additional hour at 37° C. with shaking. For each strain, four 250 μL aliquots were added into four separate 2 mL Eppendorf microcentrifuge tubes. […] Tubes were vortexed to resuspend the pellet completely, and then OD600 measurement was taken and the percent change, or percent lysis, between the control and antibiotic tubes was calculated (percent change=[control OD−antibiotic OD]/control OD). Results were then compared to the susceptibility of the strains, determined using the Clinical and Laboratory Standards Institute (CLSI) methods for disk diffusion. […]
Of note, if a strain was determined to be intermediate to a drug by the disk diffusion method using CLSI breakpoints, it was expected to correlate to the resistant answer by the method of the invention. […] With this consideration, it is preferable that intermediate strains are conservatively scored as resistant to prevent possible treatment failure. […]

The subject of test [3] is K. pneumoniae strain BAA2146 NDM+. The experiment in a line: Carbapenem test, Triton fixation buffer and BacUni QuickFISH staining (Example 4). It counts as cell-based. The settings on record: FIG. 11, 10 μg/ml. The method, then: (§3) An isolated colony from an overnight Tryptocase Soy Agar (TSA) plate for each bacteria was suspended in 1 ml Tryptocase Soy Broth (TSB) in a 5 ml BD polystyrene round bottom tube. TSB cultures were incubated at 37° C. for 1.5 hours shaking. […] of each stationary-phase culture were transferred to 2 ml Eppendorf microcentrifuge tubes containing 500 μl of Normal Saline (BD); or 500 μl Normal Saline with imipenem, ertapenem, or meropenem at a concentration of […], […], or 40 μg/ml (26.67 μg/ml final concentration). Tubes were inverted then incubated at 37° C. stagnant for thirty minutes. Then 10 μl from each tube was pipetted onto plain glass slide on a 55° C. heat block, followed by 25 μl fixation buffer (0.5% T×100, 100 mM Tris pH 9, 24% Ethanol, and 10 mM NaCl); slide is incubated until sample is dry. Ten μl of BacUni QuickFISH hybridization buffer was added to each slide followed by a 22×22 mm coverslip. The slide was then incubated at 55° C. for 15 minutes. The slides were viewed on a fluorescence microscope 60× oil immersion on Dual TxR/FITC. Images were taken with a 1 second exposure.
(§4) The control fixation in this experiment has all the same components, except no Triton X-100. This was done to assess whether the selective lysis step is required to resolve a difference between susceptible and resistant bacteria.

In test [4] the test system is K. pneumoniae strain 13882. The test is described as above. It counts as cell-based. The settings on record: FIG. 10; K. pneumoniae 13882; 10 μg/ml. The method, then: as §3, §4
For the next test, the system named is E. coli strain 35218. The test is described as above. The settings on record: FIG. 9; E. coli 35218; 10 μg/ml. It counts as cell-based. As for the experimental part:
as §3, §4

As to `CO/N=C(\C(=O)N[C@@H]1C(=O)N2C(C(=O)O)=C(COC(C)=O)CS[C@H]12)c1csc(N)n1` [cefotaxime], the “% diff” value came to 34.1% in the test with K. pneumo BAA-1705 (KPC) (K. pneumo BAA-1705 (KPC), OD600 vs control); 69.8% in the test with K. pneumo 13882 (K. pneumo 13882, OD600 vs control); 6.7% in test [1] (K. pneumo BAA-2146 (NDM1), OD600 vs control); 19.1% with E. coli BAA-197 (ESBL) (OD600 vs control). Besides, the OD600 with K. pneumo BAA-1705 (KPC) (K. pneumo BAA-1705 (KPC), antibiotic 10 μg/ml, 30 min, SDS lysis buffer + vortex, 1.5 h culture) is 0.334; in the test on K. pneumo 13882 (K. pneumo 13882, antibiotic 10 μg/ml, 30 min, SDS lysis buffer + vortex, 1.5 h culture), 0.11; in test [1] (K. pneumo BAA-2146 (NDM1), antibiotic 10 μg/ml, 30 min, SDS lysis buffer + vortex, 1.5 h culture), 0.28; with E. coli BAA-197 (ESBL) (antibiotic 10 μg/ml, 30 min, SDS lysis buffer + vortex, 1.5 h culture) it was 0.292. Further, the “assay score (sensitive or resistant)” value in the test on K. pneumo BAA-1705 (KPC) (K. pneumoniae BAA-1705 (KPC)) is “resistant”; in the test with K. pneumo 13882 (K. pneumoniae 13882), “sensitive”; in test [1] (K. pneumoniae BAA-2146 (NDM1)) it was “resistant”; with E. coli BAA-197 (ESBL), “resistant”.
With `C[C@@H](O)[C@H]1C(=O)N2C(C(=O)O)=C(S[C@@H]3CN[C@H](C(=O)Nc4cccc(C(=O)O)c4)C3)[C@H](C)[C@H]12` [ertapenem], the “lysis (percent change of OD600)” value in test [2] is 36%. For the same compound, the “test result (susceptibility or resistance) by BacUni QuickFISH staining” value in test [3] was “detect resistance”; in test [4], “detect susceptibility”; in the test on E. coli strain 35218 it was “detect susceptibility”.
